Our source for the IC50 values is patent publication US20140107100A1, “Benzoxazepines as Inhibitors of PI3K/mTOR and Methods of Their Use and Manufacture” (EXELIXIS, INC., priority 2010, published 2014).

For orientation: pIC50 means the IC50 on a negative log10 scale, so that one unit is a factor of ten.

pIC50: −log10 of the molar value.

This experiment addresses mTOR/GbL/Raptor (mTORC1) (Homo sapiens, UniProt P42345). Description: mTOR/GbL/Raptor (mTORC1) ELISA assay, phosphorylation of 4E-BP1. Type of experiment: biochemical. Conditions: 0.2 nM mTORC1, 40 uM ATP, 50 nM NHis-tagged 4E-BP1, 120 minutes; read-out: IC50 in this assay (mTORC1 ELISA). The essentials: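 Phospho-4E-BP1 was quantified by luminescent ELISA (anti-phospho-4E-BP1 IgG, HRP-tagged secondary) after capture of the His-tagged substrate on Ni-chelate plates.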
(In an ELISA, binding on a coated surface is turned into a signal by an enzyme label.)
For the compound `Cc1cc(-c2cnc3sc(N)nc3c2)cc2c1OCCN(c1ncccc1C#N)C2` [Compound 38, 2-[7-(2-amino[1,3]thiazolo[5,4-b]pyridin-6-yl)-9-methyl-2,3-dihydro-1,4-benzoxazepin-4(5H)-yl]pyridine-3-carbonitrile], the pIC50 was 6.30 to 7.00.
In the case of `Cc1cc(-c2cnc3sc(N)nc3c2)cc2c1OCCN(c1nc(C(O)C(F)(F)F)nc(C)c1C(C)C)C2` (stereo not shown) [Compound 94, 1-{4-[7-(2-amino[1,3]thiazolo[5,4-b]pyridin-6-yl)-9-methyl-2,3-dihydro-1,4-benzoxazepin-4(5H)-yl]-6-methyl-5-(1-methylethyl)pyrimidin-2-yl}-2,2,2-trifluoroethanol] it was not below 7.00; in that of `COc1ncc(-c2cc(C)c3c(c2)CN(c2nc(N)nc(C)c2C(C)C)CCO3)cn1` [Compound 82, 4-methyl-5-(1-methylethyl)-6-{9-methyl-7-[2-(methyloxy)pyrimidin-5-yl]-2,3-dihydro-1,4-benzoxazepin-4(5H)-yl}pyrimidin-2-amine], 6.30 to 7.00; in that of `Cc1cc(-c2cnc3sc(N)nc3c2)cc2c1OCCN(c1ncccc1C(N)=O)C2` [Compound 39, 2-[7-(2-amino[1,3]thiazolo[5,4-b]pyridin-6-yl)-9-methyl-2,3-dihydro-1,4-benzoxazepin-4(5H)-yl]pyridine-3-carboxamide], 6.30 to 7.00.
`CNCc1nc(C)c(C(C)C)c(N2CCOc3c(C)cc(-c4cnc5sc(N)nc5c4)cc3C2)n1` [Compound 136, 6-(9-methyl-4-{6-methyl-2-[(methylamino)methyl]-5-(1-methylethyl)pyrimidin-4-yl}-2,3,4,5-tetrahydro-1,4-benzoxazepin-7-yl)[1,3]thiazolo[5,4-b]pyridin-2-amine]: the pIC50 was not below 7.00.
The same measure for `COc1ccc(-c2cc(C)c3c(c2)CN(c2nc(N)nc(C)c2C(C)C)CCO3)cc1OC` [Compound 78, 4-{7-[3,4-bis(methyloxy)phenyl]-9-methyl-2,3-dihydro-1,4-benzoxazepin-4(5H)-yl}-6-methyl-5-(1-methylethyl)pyrimidin-2-amine]: 6.30 to 7.00; for `COc1nc(C)c(C(C)C)c(N2CCOc3c(C)cc(-c4cnc5sc(N)nc5c4)cc3C2)n1` [Compound 152, 6-{9-methyl-4-[6-methyl-5-(1-methylethyl)-2-(methyloxy)pyrimidin-4-yl]-2,3,4,5-tetrahydro-1,4-benzoxazepin-7-yl}[1,3]thiazolo[5,4-b]pyridin-2-amine]: not below 7.00; for `Cc1cc(-c2ccncc2)cc2c1OCCN(c1nc(N)nc(C)c1C(C)C)C2` [Compound 75]: 6.30 to 7.00.
Turning to `COCCOc1nc(C)c(C(C)C)c(N2CCOc3c(C)cc(-c4cnc5sc(N)nc5c4)cc3C2)n1` [Compound 154, 6-{9-methyl-4-[6-methyl-5-(1-methylethyl)-2-{[2-(methyloxy)ethyl]oxy}pyrimidin-4-yl]-2,3,4,5-tetrahydro-1,4-benzoxazepin-7-yl}[1,3]thiazolo[5,4-b]pyridin-2-amine], the negative-log IC50 (pIC50) is not below 7.00.
The same measure for `CCc1cnc(CN(C)C)nc1N1CCOc2c(C)cc(-c3cnc4sc(N)nc4c3)cc2C1` [Compound 66, 6-(4-{2-[(dimethylamino)methyl]-5-ethylpyrimidin-4-yl}-9-methyl-2,3,4,5-tetrahydro-1,4-benzoxazepin-7-yl)[1,3]thiazolo[5,4-b]pyridin-2-amine]: not below 7.00.
The same measure for `COCCc1c(C)nc(C)nc1N1CCOc2c(C)cc(-c3cnc4sc(N)nc4c3)cc2C1` [Compound 132, 6-(4-{2,6-dimethyl-5-[2-(methyloxy)ethyl]pyrimidin-4-yl}-9-methyl-2,3,4,5-tetrahydro-1,4-benzoxazepin-7-yl)[1,3]thiazolo[5,4-b]pyridin-2-amine]: not below 7.00; for `Cc1nc2ccc(-c3cc(C)c4c(c3)CN(c3nc(N)nc(C)c3C(C)C)CCO4)cc2[nH]1` [Compound 2, 4-methyl-5-(1-methylethyl)-6-[9-methyl-7-(2-methyl-1H-benzimidazol-6-yl)-2,3-dihydro-1,4-benzoxazepin-4(5H)-yl]pyrimidin-2-amine]: not below 7.00.
As for `Cc1cc(-c2cnc3nc[nH]c3c2)cc2c1OCCN(c1nc(CN(C)CC(F)F)nc(C)c1C(C)C)C2` [Compound 167, 2,2-difluoro-N-({4-[7-(1H-imidazo[4,5-b]pyridin-6-yl)-9-methyl-2,3-dihydro-1,4-benzoxazepin-4(5H)-yl]-6-methyl-5-(1-methylethyl)pyrimidin-2-yl}methyl)-N-methylethanamine], the negative logarithm of the IC50 (pIC50) is 6.30 to 7.00.
In the case of `Cc1cc(-c2nnc(N)s2)cc2c1OCCN(c1ncnc(C)c1C)C2` [Compound 176, 5-[4-(5,6-dimethylpyrimidin-4-yl)-9-methyl-2,3,4,5-tetrahydro-1,4-benzoxazepin-7-yl]-1,3,4-thiadiazol-2-amine] it was not below 7.00; in that of `CC(=O)Nc1ncc(-c2cc(C)c3c(c2)CN(c2nc(N)nc(C)c2C(C)C)CCO3)s1` [Compound 106, N-(5-{4-[2-amino-6-methyl-5-(1-methylethyl)pyrimidin-4-yl]-9-methyl-2,3,4,5-tetrahydro-1,4-benzoxazepin-7-yl}-1,3-thiazol-2-yl)acetamide], not below 7.00.
For `Cc1cc(-c2cnc3sc(N)nc3c2)cc2c1OCCN(c1nc(CN3CCCC3)nc(C)c1C(C)C)C2` [Compound 59, 6-{9-methyl-4-[6-methyl-5-(1-methylethyl)-2-(pyrrolidin-1-ylmethyl)pyrimidin-4-yl]-2,3,4,5-tetrahydro-1,4-benzoxazepin-7-yl}[1,3]thiazolo[5,4-b]pyridin-2-amine], the pIC50 is not below 7.00.
`C=Cc1c(Cl)nc(N)nc1N1CCOc2c(C)cc(-c3cnc4sc(N)nc4c3)cc2C1` [Compound 40, 6-[4-(2-amino-6-chloro-5-ethenylpyrimidin-4-yl)-9-methyl-2,3,4,5-tetrahydro-1,4-benzoxazepin-7-yl][1,3]thiazolo[5,4-b]pyridin-2-amine]: the pIC50 was not below 7.00.
In the case of `Cc1cnccc1N1CCOc2c(C)cc(-c3cnc4sc(N)nc4c3)cc2C1` [Compound 48, 6-[9-methyl-4-(3-methylpyridin-4-yl)-2,3,4,5-tetrahydro-1,4-benzoxazepin-7-yl][1,3]thiazolo[5,4-b]pyridin-2-amine] it was 6.30 to 7.00; in that of `CCN(Cc1nc(C)c(C(C)C)c(N2CCOc3c(C)cc(-c4nnc(N)s4)cc3C2)n1)CC(F)F` [Compound 170, 5-{4-[2-{[(2,2-difluoroethyl)(ethyl)amino]methyl}-6-methyl-5-(1-methylethyl)pyrimidin-4-yl]-9-methyl-2,3,4,5-tetrahydro-1,4-benzoxazepin-7-yl}-1,3,4-thiadiazol-2-amine], 6.30 to 7.00; in that of `CCN(CCF)Cc1nc(C)c(C(C)C)c(N2CCOc3c(C)cc(-c4cnc5sc(N)nc5c4)cc3C2)n1` [Compound 159, 6-{4-[2-{[ethyl(2-fluoroethyl)amino]methyl}-6-methyl-5-(1-methylethyl)pyrimidin-4-yl]-9-methyl-2,3,4,5-tetrahydro-1,4-benzoxazepin-7-yl}[1,3]thiazolo[5,4-b]pyridin-2-amine], not below 7.00.
On to `COc1cc(-c2cnc3sc(N)nc3c2)cc2c1OCCN(c1nc(CN(C)C)nc(C)c1C(C)C)C2` [Compound 157, 6-[4-{2-[(dimethylamino)methyl]-6-methyl-5-(1-methylethyl)pyrimidin-4-yl}-9-(methyloxy)-2,3,4,5-tetrahydro-1,4-benzoxazepin-7-yl][1,3]thiazolo[5,4-b]pyridin-2-amine], for which the pIC50 was 6.30 to 7.00.
The same measure for `COc1cncc(-c2cc(C)c3c(c2)CN(c2nc(N)nc(C)c2C(C)C)CCO3)c1` [Compound 79, 4-methyl-5-(1-methylethyl)-6-{9-methyl-7-[5-(methyloxy)pyridin-3-yl]-2,3-dihydro-1,4-benzoxazepin-4(5H)-yl}pyrimidin-2-amine]: 6.30 to 7.00; for `Cc1ncc(C(C)C)c(N2CCOc3c(C)cc(-c4cnc5sc(N)nc5c4)cc3C2)n1` [Compound 107, 6-{9-methyl-4-[2-methyl-5-(1-methylethyl)pyrimidin-4-yl]-2,3,4,5-tetrahyro-1,4-benzoxazepin-7-yl}[1,3]thiazolo[5,4-b]pyridin-2-amine]: not below 7.00.
In the case of `Cc1cc(-c2cnc3sc(N)nc3c2)cc2c1OCCN(c1nc(CO)nc(C)c1C(C)C)C2` [Compound 64, {4-[7-(2-amino[1,3]thiazolo[5,4-b]pyridin-6-yl)-9-methyl-2,3-dihydro-1,4-benzoxazepin-4(5H)-yl]-6-methyl-5-(1-methylethyl)pyrimidin-2-yl}methanol] it was not below 7.00; in that of `COCc1nc(C)c(C(C)C)c(N2CCOc3c(C)cc(-c4cnc5sc(N)nc5c4)cc3C2)n1` [Compound 93, 6-(9-methyl-4-{6-methyl-5-(1-methylethyl)-2-[(methyloxy)methyl]pyrimidin-4-yl}-2,3,4,5-tetrahydro-1,4-benzoxazepin-7-yl)[1,3]thiazolo[5,4-b]pyridin-2-amine], not below 7.00; in that of `CCn1cc(-c2cc(C)c3c(c2)CN(c2nc(N)nc(C)c2C(C)C)CCO3)cn1` [Compound 111, 4-[7-(1-ethyl-1H-pyrazol-4-yl)-9-methyl-2,3-dihydro-1,4-benzoxazepin-4(5H)-yl]-6-methyl-5-(1-methylethyl)pyrimidin-2-amine], 6.30 to 7.00.
The same measure for `Cc1cc(-c2cnc3sc(N)nc3c2)cc2c1OCCN(c1ncnc(C)c1C(C)C)C2` [Compound 87, 6-{9-methyl-4-[6-methyl-5-(1-methylethyl)pyrimidin-4-yl]-2,3,4,5-tetrahydro-1,4-benzoxazepin-7-yl}[1,3]thiazolo[5,4-b]pyridin-2-amine]: not below 7.00.
For `Cc1nc2cc(-c3cc(C)c4c(c3)CN(c3nc(N)nc(C)c3C(C)C)CCO4)cnc2[nH]1` [Compound 162, 4-methyl-5-(1-methylethyl)-6-[9-methyl-7-(2-methyl-3H-imidazo[4,5-b]pyridin-6-yl)-2,3-dihydro-1,4-benzoxazepin-4(5H)-yl]pyrimidin-2-amine], the pIC50 was not below 7.00.
